Values quoted from earlier work as cited in patent US6472370B1, “Anticonvulsant derivatives useful in treating post traumatic stress disorder” (Ortho-McNeil Pharmaceutical, Inc., priority 1998, dated 2002).
Where two headings read alike, the source gives them in different places.

How the values were obtained:
[1] = system: seizures in several rodent models of epilepsy
[2] = system: simple and complex partial seizures and secondarily generalized seizures; conditions: clinical trials of human epilepsy; adjunctive therapy or monotherapy
kindling seizures = conditions: animal (rodent) model of kindling

CC1(C)O[C@@H]2[C@@H](CO[C@@]3(COS(N)(=O)=O)OC(C)(C)O[C@@H]23)O1 [topiramate, 2,3:4,5-bis-O-(1-methylethylidene)-β-D-fructopyranose sulfamate]
block of seizures [1]: effectively block seizures | efficacy in treating simple and complex partial seizures and secondarily generalized seizures [2]: effective | block of seizures in kindled epilepsy / kindling seizures (kindling seizures): effectively block seizures | block of seizures in kindled epilepsy / kindling seizures (kindling seizures; listed as Topiramate): effective
